Like-named read-outs stand apart in the source and are kept apart here. Where only a bound is given, the exact number is not on record here.

This note sets out measurements from US11279687B2, “Compounds and compositions for the inhibition of NAMPT” (Valo Health, Inc., priority 2010, dated 2022).

For one assay, the target named is NAMPT (Homo sapiens (Human), UniProt P43490). Kind of assay: NAMPT biochemical inhibition assay (NMN quantified by mass spectrometry). As to conditions: NAMPT biochemical inhibition; read-out: Biochem IC50.
NAMPT, sequence (P43490 whole entry): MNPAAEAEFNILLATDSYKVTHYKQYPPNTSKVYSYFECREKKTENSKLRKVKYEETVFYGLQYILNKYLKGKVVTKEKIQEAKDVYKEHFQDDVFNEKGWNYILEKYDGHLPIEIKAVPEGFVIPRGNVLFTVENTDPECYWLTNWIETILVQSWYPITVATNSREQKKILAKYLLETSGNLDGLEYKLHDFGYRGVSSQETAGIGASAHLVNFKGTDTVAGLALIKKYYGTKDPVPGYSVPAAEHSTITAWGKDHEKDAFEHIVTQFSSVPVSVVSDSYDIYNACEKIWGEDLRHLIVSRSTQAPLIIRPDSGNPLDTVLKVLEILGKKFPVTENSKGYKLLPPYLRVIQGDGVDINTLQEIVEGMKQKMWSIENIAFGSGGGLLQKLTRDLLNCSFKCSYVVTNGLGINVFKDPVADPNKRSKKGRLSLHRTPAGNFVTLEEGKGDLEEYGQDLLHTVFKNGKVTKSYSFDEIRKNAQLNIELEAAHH
The subject of a further assay is A2780 cells. Kind of assay: In-vitro cell proliferation assay (SRB), A2780 cells.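 Note: viable cell number read as SRB absorbance, background from media-only wells subtracted, IC50 interpolated from percent inhibition at two bracketing compound concentrations.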 Type of assay: cell-based. As to conditions: A2780 cells, 72 hours, SRB, read-out: A2780 IC50.

As a reminder, the IC50 is the concentration that inhibits the measured activity by half. In the case of `O=C(NCc1cccnc1)Nc1ccc(S(=O)(=O)N2CCN(C(=O)Cc3ccc(Cl)c(Cl)c3)CC2)cc1` [3-(4-{4-[2-(3,4-dichlorophenyl)acetyl]piperazine-1-sulfonyl[phenyl)-1-(pyridin-3-ylmethyl)urea], the IC50 at NAMPT was 3.7 nM; in the assay on A2780 cells it was 1000 to 10000 nM.

As to `COc1cc(NS(=O)(=O)c2ccc(NC(=O)NCc3cccnc3)cc2)ccc1C` [3-{4-[(3-methoxy-4-methylphenyl)sulfamoyl]phenyl}-1-(pyridin-3-ylmethyl)urea], the IC50 at NAMPT turned out to be 4 nM; with A2780 cells (Homo sapiens, A2780, 72 h), 148 nM.

For the compound `Cc1ccc(NS(=O)(=O)c2ccc(NC(=O)NCc3cccnc3)cc2)c(F)c1` [3-{4-[(2-fluoro-4-methylphenyl)sulfamoyl]phenyl}-1-(pyridin-3-ylmethyl)urea], the IC50 was 2 nM at NAMPT and 157 nM in the assay on A2780 cells (Homo sapiens, A2780, 72 h).

Take `CCCN(CCC)C1CCN(S(=O)(=O)c2ccc(NC(=O)NCc3cccnc3)cc2)CC1` [3-{4-[4-(dipropylamino)piperidine-1-sulfonyl]phenyl}-1-(pyridin-3-ylmethyl)urea]: the IC50 came out at 4 nM on NAMPT and 3 nM in the assay with A2780 cells (Homo sapiens, A2780, 72 h).

Turning to `O=C(NCc1cccnc1)Nc1ccc(S(=O)(=O)N2CCC(N3CCCCC3)CC2)cc1` [1-{4-[4-(piperidin-1-yl)piperidine-1-sulfonyl]phenyl}-3-(pyridin-3-ylmethyl)urea], the IC50 on NAMPT came to 7 nM; with A2780 cells (Homo sapiens, A2780, 72 h), 13 nM.

As to `COc1ncccc1NS(=O)(=O)c1ccc(NC(=O)NCc2cccnc2)cc1` [3-{4-[(2-methoxypyridin-3-yl)sulfamoyl]phenyl}-1-(pyridin-3-ylmethyl)urea], the IC50 on NAMPT was 7 nM; in the assay with A2780 cells (Homo sapiens, A2780, 72 h) it was 114 nM.

Regarding `O=C(NCc1cccnc1)Nc1ccc(S(=O)(=O)c2cc(F)cc(OCC(F)(F)F)c2)cc1` [3-(4-{[3-fluoro-5-(2,2,2-trifluoroethoxy)benzene]sulfonyl]phenyl)-1-(pyridin-3-ylmethyl)urea], the IC50 at NAMPT was 1.1 nM; in the assay with A2780 cells, 29.7 nM.

Turning to `CCN(CC)C(=O)c1cc(Cl)cc(S(=O)(=O)c2ccc(NC(=O)NCc3cccnc3)cc2)c1` [3-chloro-N,N-diethyl-5-[(4-{[(pyridin-3-ylmethyl)carbamoyl]amino}benzene)sulfonyl]benzamide], the IC50 at NAMPT was found to be 3.5 nM; in the assay on A2780 cells (Homo sapiens, A2780, 72 h) it was 1.7 nM.

For `CC(C)(C)c1ccc(NS(=O)(=O)c2ccc(NC(=O)NCc3cccnc3)cc2)c(Cl)c1` [3-{4-[(4-tert-butyl-2-chlorophenyl)sulfamoyl]phenyl}-1-(pyridin-3-ylmethyl)urea], the IC50 on NAMPT is 1.4 nM; in the assay on A2780 cells (Homo sapiens, A2780, 72 h), 97 nM.

Consider `Cc1ccc(C)c(NS(=O)(=O)c2ccc(NC(=O)NCc3cccnc3)cc2)c1` [3-{4-[(2,5-dimethylphenyl)sulfamoyl]phenyl}-1-(pyridin-3-ylmethyl)urea], for which the IC50 stood at 6 nM at NAMPT and 116 nM in the assay with A2780 cells (Homo sapiens, A2780, 72 h).

As to `COc1cccc(OC)c1S(=O)(=O)c1ccc(NC(=O)NCc2cccnc2)cc1` [3-{4-[(2,6-dimethoxybenzene)sulfonyl]phenyl}-1-(pyridin-3-ylmethyl)urea], the IC50 was determined as 7 nM at NAMPT and 26 nM in the assay on A2780 cells (Homo sapiens, A2780, 72 h).

For the compound `O=C(NCc1cnccn1)Nc1ccc(S(=O)(=O)N2CCCCC2)cc1` [3-[4-(piperidine-1-sulfonyl)phenyl]-1-(pyrazin-2-ylmethyl)urea], the IC50 at NAMPT was 273 nM; with A2780 cells (Homo sapiens, A2780, 72 h), more than 30000 nM.

Turning to `COc1ccccc1CNS(=O)(=O)c1ccc(NC(=O)NCc2cccnc2)cc1` [3-(4-{[(2-methoxyphenyl)methyl]sulfamoyl}phenyl)-1-(pyridin-3-ylmethyl)urea], the IC50 stood at 8 nM at NAMPT and 97 nM with A2780 cells (Homo sapiens, A2780, 72 h).

In the case of `CCN(CC)C(=O)CN1CCN(S(=O)(=O)c2ccc(NC(=O)NCc3cccnc3)cc2)CC1` [N,N-diethyl-2-{4-[(4-{[(pyridin-3-ylmethyl)carbamoyl]amino}benzene)sulfonyl]piperazin-1-yl}acetamide], the IC50 at NAMPT was 5 nM; with A2780 cells (Homo sapiens, A2780, 72 h), 45 nM.

Regarding `C[C@@H]1[C@H]2C[C@@H](C[C@H]1NS(=O)(=O)c1ccc(NC(=O)NCc3cccnc3)cc1)C2(C)C` [1-(pyridin-3-ylmethyl)-3-(4-{[(1R,2R,3R,5S)-2,6,6-trimethylbicyclo[3.1.1]heptan-3-yl]sulfamoyl}phenyl)urea], the IC50 at NAMPT worked out at 80 nM; with A2780 cells (Homo sapiens, A2780, 72 h), 91 nM.

With `COc1ncc(S(=O)(=O)c2ccc(NC(=O)NCc3cccnc3)cc2)c(OC)n1` [3-[4-(2,4-dimethoxypyrimidine-5-sulfonyl)phenyl]-1-(pyridin-3-ylmethyl)urea], the IC50 on NAMPT worked out at 6.7 nM; in the assay on A2780 cells (Homo sapiens, A2780, 72 h) it was 21 nM.

As for `Cc1ccc(NS(=O)(=O)c2ccc(NC(=O)NCc3cccnc3)cc2)cc1C` [3-{4-[(3,4-dimethylphenyl)sulfamoyl]phenyl}-1-(pyridin-3-ylmethyl)urea], the IC50 at NAMPT was determined as 3 nM; in the assay on A2780 cells (Homo sapiens, A2780, 72 h), 93 nM.

Regarding `O=C(NCc1ccc2nccn2c1)c1ccc(S(=O)(=O)N2CC3CCC(C2)O3)cc1` [N-{imidazo[1,2-a]pyridin-6-ylmethyl}-4-{8-oxa-3-azabicyclo[3.2.1]octane-3-sulfonyl}benzamide], the IC50 at NAMPT turned out to be 109 nM; in the assay on A2780 cells (Homo sapiens, A2780, 72 h), 27.1 nM.

For the compound `O=C(NCc1cccnc1)Nc1ccc(S(=O)(=O)c2cccc3cccnc23)cc1` [3-(pyridin-3-ylmethyl)-1-[4-(quinoline-8-sulfonyl)phenyl]urea], the IC50 came out at 1.4 nM on NAMPT and 2.2 nM in the assay with A2780 cells (Homo sapiens, A2780, 72 h).

With `O=C(NCc1cccnc1)Nc1ccc(S(=O)(=O)Nc2ccccc2-n2cccc2)cc1` [3-(pyridin-3-ylmethyl)-1-(4-{[2-(1H-pyrrol-1-yl)phenyl]sulfamoyl}phenyl)urea], the IC50 at NAMPT was found to be 3 nM; in the assay with A2780 cells (Homo sapiens, A2780, 72 h) it was 76 nM.

For `COc1ccc(S(=O)(=O)c2ccc(NC(=O)NCc3cccnc3)cc2)cc1Cl` [3-{4-[(3-chloro-4-methoxybenzene)sulfonyl]phenyl}-1-(pyridin-3-ylmethyl)urea], the IC50 on NAMPT came out at 1.3 nM; in the assay with A2780 cells (Homo sapiens, A2780, 72 h) it was 92.9 nM.

As to `COC[C@@H]1CCCN1S(=O)(=O)c1ccc(NC(=O)NCc2cccnc2)cc1` [3-{4-[(2S)-2-(methoxymethyl)pyrrolidine-1-sulfonyl]phenyl}-1-(pyridin-3-ylmethyl)urea], the IC50 on NAMPT turned out to be 2 nM; in the assay on A2780 cells (Homo sapiens, A2780, 72 h), 60 nM.

As for `O=C(NCc1cccnc1)Nc1ccc(S(=O)(=O)c2ccc(OC(F)(F)F)cc2)cc1` [1-(pyridin-3-ylmethyl)-3-(4-{[4-(trifluoromethoxy)benzene]sulfonyl}phenyl)urea], the IC50 was 5 nM at NAMPT and 420 nM with A2780 cells (Homo sapiens, A2780, 72 h).

As for `O=C(NCc1ccc(S(=O)(=O)c2ccccc2)cc1)Nc1ccc2ncccc2c1` [1-{[4-(benzenesulfonyl)phenyl]methyl}-3-(quinolin-6-yl)urea], the IC50 at NAMPT was 2260 nM; with A2780 cells (Homo sapiens, A2780, 72 h), more than 30000 nM.

Take `O=C(NCc1cccnc1)Nc1ccc(S(=O)(=O)Nc2ccccc2Br)cc1` [3-{4-[(2-bromophenyl)sulfamoyl]phenyl}-1-(pyridin-3-ylmethyl)urea]: the IC50 on NAMPT came to 2 nM; with A2780 cells (Homo sapiens, A2780, 72 h), 24 nM.

Turning to `O=C(NCCc1cccnc1)c1ccc(S(=O)(=O)Nc2cccc(OC(F)(F)F)c2)cc1` [N-[2-(pyridin-3-yl)ethyl]-4-{[3-(trifluoromethoxy)phenyl]sulfamoyl[benzamide], the IC50 amounted to 20500 nM at NAMPT and 1550 nM in the assay with A2780 cells (Homo sapiens, A2780, 72 h).
